Data reported in ChEMBL document CHEMBL3885881, “DrugMatrix”.

Organism: Rattus norvegicus
Assay: DrugMatrix - Regimen: Daily Repeat
Assay type: toxicity, organism-based, Sprague-Dawley
Set-up: regimen Daily Repeat, gender Male, age 6-8 weeks
Conditions: in vivo, po, route oral GAVAGE, vehicle .5 % CMC; for BASOPHIL / EOSINOPHIL / ERYTHROCYTE COUNT / HEMATOCRIT / HEMOGLOBIN / LEUKOCYTE COUNT / LYMPHOCYTE / MEAN CORPUSCULAR HEMOGLOBIN / MEAN CORPUSCULAR HEMOGLOBIN CONCENTRATION / MEAN CORPUSCULAR VOLUME / MONOCYTE / NEUTROPHIL / PLATELET COUNT: tissue Blood; for ALANINE AMINOTRANSFERASE / ALBUMIN / ALKALINE PHOSPHATASE / ASPARTATE AMINOTRANSFERASE / BLOOD UREA NITROGEN / CHLORIDE / CHOLESTEROL / CREATINE PHOSPHOKINASE / CREATININE / GLUCOSE / PHOSPHORUS / POTASSIUM / SODIUM / TOTAL PROTEIN: tissue Plasma
[1] = 0 mg/kg, 72 h, dose level Control, time 3 day
[2] = 0 mg/kg, 120 h, dose level Control, time 5 day
[3] = 3 mg/kg, 72 h, dose level Low, time 3 day
[4] = 3 mg/kg, 120 h, dose level Low, time 5 day
[5] = 37 mg/kg, 72 h, dose level High, time 3 day
[6] = 37 mg/kg, 120 h, dose level High, time 5 day

CN1CCC(=C2c3ccccc3C=Cc3ccccc32)CC1 [CYPROHEPTADINE]
BASOPHIL [1]: 0%
EOSINOPHIL [1]: 0.33%
ERYTHROCYTE COUNT [1]: 6.03 x10E6/uL
HEMATOCRIT [1]: 38.8%
HEMOGLOBIN [1]: 14.26 G/DL
LEUKOCYTE COUNT [1]: 10.64 x10E3/uL
LYMPHOCYTE [1]: 83.33%
MEAN CORPUSCULAR HEMOGLOBIN [1]: 23.64 pg
MEAN CORPUSCULAR HEMOGLOBIN CONCENTRATION [1]: 36.74 G/DL
MEAN CORPUSCULAR VOLUME [1]: 64.32 fL
MONOCYTE [1]: 3.33%
NEUTROPHIL [1]: 13%
PLATELET COUNT [1]: 1264.4 x10E3/uL
ALANINE AMINOTRANSFERASE [1]: 38.83 u/L
ALBUMIN [1]: 3.55 G/DL
ALKALINE PHOSPHATASE [1]: 368.33 u/L
ASPARTATE AMINOTRANSFERASE [1]: 66.17 u/L
BLOOD UREA NITROGEN [1]: 15.67 mg/dL
CHLORIDE [1]: 104.33 MEQ/L
CHOLESTEROL [1]: 76.5 mg/dL
CREATINE PHOSPHOKINASE [1]: 166.83 u/L
CREATININE [1]: 0.52 mg/dL
GLUCOSE [1]: 173.17 mg/dL
PHOSPHORUS [1]: 11.68 mg/dL
POTASSIUM [1]: 6.43 MEQ/L
SODIUM [1]: 149.5 MEQ/L
TOTAL PROTEIN [1]: 5.93 G/DL
BASOPHIL [2]: 0%
EOSINOPHIL [2]: 0%
ERYTHROCYTE COUNT [2]: 5.88 x10E6/uL
HEMATOCRIT [2]: 37.87%
HEMOGLOBIN [2]: 14.48 G/DL
LEUKOCYTE COUNT [2]: 12.43 x10E3/uL
LYMPHOCYTE [2]: 84.17%
MEAN CORPUSCULAR HEMOGLOBIN [2]: 24.65 pg
MEAN CORPUSCULAR HEMOGLOBIN CONCENTRATION [2]: 38.25 G/DL
MEAN CORPUSCULAR VOLUME [2]: 64.47 fL
MONOCYTE [2]: 4.33%
NEUTROPHIL [2]: 11.5%
PLATELET COUNT [2]: 1182.33 x10E3/uL
ALANINE AMINOTRANSFERASE [2]: 38.67 u/L
ALBUMIN [2]: 3.55 G/DL
ALKALINE PHOSPHATASE [2]: 342.5 u/L
ASPARTATE AMINOTRANSFERASE [2]: 63.33 u/L
BLOOD UREA NITROGEN [2]: 15.5 mg/dL
CHLORIDE [2]: 104 MEQ/L
CHOLESTEROL [2]: 75.5 mg/dL
CREATINE PHOSPHOKINASE [2]: 142.5 u/L
CREATININE [2]: 0.62 mg/dL
GLUCOSE [2]: 165.17 mg/dL
PHOSPHORUS [2]: 10.87 mg/dL
POTASSIUM [2]: 6.85 MEQ/L
SODIUM [2]: 150.17 MEQ/L
TOTAL PROTEIN [2]: 5.93 G/DL
BASOPHIL [3]: 0%
EOSINOPHIL [3]: 0%
ERYTHROCYTE COUNT [3]: 6.1 x10E6/uL
HEMATOCRIT [3]: 40.23%
HEMOGLOBIN [3]: 15.13 G/DL
LEUKOCYTE COUNT [3]: 11.03 x10E3/uL
LYMPHOCYTE [3]: 89.33%
MEAN CORPUSCULAR HEMOGLOBIN [3]: 24.8 pg
MEAN CORPUSCULAR HEMOGLOBIN CONCENTRATION [3]: 37.63 G/DL
MEAN CORPUSCULAR VOLUME [3]: 65.97 fL
MONOCYTE [3]: 1%
NEUTROPHIL [3]: 9.67%
PLATELET COUNT [3]: 1191.33 x10E3/uL
ALANINE AMINOTRANSFERASE [3]: 32.67 u/L
ALBUMIN [3]: 3.6 G/DL
ALKALINE PHOSPHATASE [3]: 369 u/L
ASPARTATE AMINOTRANSFERASE [3]: 58 u/L
BLOOD UREA NITROGEN [3]: 13.33 mg/dL
CHLORIDE [3]: 105.67 MEQ/L
CHOLESTEROL [3]: 75.67 mg/dL
CREATINE PHOSPHOKINASE [3]: 139.67 u/L
CREATININE [3]: 0.47 mg/dL
GLUCOSE [3]: 159 mg/dL
PHOSPHORUS [3]: 11.23 mg/dL
POTASSIUM [3]: 6.9 MEQ/L
SODIUM [3]: 151.33 MEQ/L
TOTAL PROTEIN [3]: 5.8 G/DL
BASOPHIL [4]: 0%
EOSINOPHIL [4]: 0.67%
ERYTHROCYTE COUNT [4]: 6.35 x10E6/uL
HEMATOCRIT [4]: 39.23%
HEMOGLOBIN [4]: 14.37 G/DL
LEUKOCYTE COUNT [4]: 13.2 x10E3/uL
LYMPHOCYTE [4]: 89.33%
MEAN CORPUSCULAR HEMOGLOBIN [4]: 22.67 pg
MEAN CORPUSCULAR HEMOGLOBIN CONCENTRATION [4]: 36.63 G/DL
MEAN CORPUSCULAR VOLUME [4]: 61.83 fL
MONOCYTE [4]: 1%
NEUTROPHIL [4]: 9%
PLATELET COUNT [4]: 1248.67 x10E3/uL
ALANINE AMINOTRANSFERASE [4]: 39.67 u/L
ALBUMIN [4]: 3.4 G/DL
ALKALINE PHOSPHATASE [4]: 503.67 u/L
ASPARTATE AMINOTRANSFERASE [4]: 62.67 u/L
BLOOD UREA NITROGEN [4]: 13.67 mg/dL
CHLORIDE [4]: 103.33 MEQ/L
CHOLESTEROL [4]: 70 mg/dL
CREATINE PHOSPHOKINASE [4]: 134 u/L
CREATININE [4]: 0.53 mg/dL
GLUCOSE [4]: 189.33 mg/dL
PHOSPHORUS [4]: 12.93 mg/dL
POTASSIUM [4]: 6.83 MEQ/L
SODIUM [4]: 147.67 MEQ/L
TOTAL PROTEIN [4]: 5.63 G/DL
BASOPHIL [5]: 0%
EOSINOPHIL [5]: 0%
ERYTHROCYTE COUNT [5]: 5.89 x10E6/uL
HEMATOCRIT [5]: 38%
HEMOGLOBIN [5]: 13.37 G/DL
LEUKOCYTE COUNT [5]: 9.03 x10E3/uL
LYMPHOCYTE [5]: 86%
MEAN CORPUSCULAR HEMOGLOBIN [5]: 22.7 pg
MEAN CORPUSCULAR HEMOGLOBIN CONCENTRATION [5]: 35.17 G/DL
MEAN CORPUSCULAR VOLUME [5]: 64.53 fL
MONOCYTE [5]: 3.33%
NEUTROPHIL [5]: 10.67%
PLATELET COUNT [5]: 1233.33 x10E3/uL
ALANINE AMINOTRANSFERASE [5]: 33 u/L
ALBUMIN [5]: 3.67 G/DL
ALKALINE PHOSPHATASE [5]: 296.33 u/L
ASPARTATE AMINOTRANSFERASE [5]: 50.33 u/L
BLOOD UREA NITROGEN [5]: 15 mg/dL
CHLORIDE [5]: 104.67 MEQ/L
CHOLESTEROL [5]: 62.67 mg/dL
CREATINE PHOSPHOKINASE [5]: 128 u/L
CREATININE [5]: 0.5 mg/dL
GLUCOSE [5]: 167.33 mg/dL
PHOSPHORUS [5]: 12.37 mg/dL
POTASSIUM [5]: 7.2 MEQ/L
SODIUM [5]: 150.67 MEQ/L
TOTAL PROTEIN [5]: 5.93 G/DL
BASOPHIL [6]: 0%
EOSINOPHIL [6]: 0.33%
ERYTHROCYTE COUNT [6]: 5.95 x10E6/uL
HEMATOCRIT [6]: 37.4%
HEMOGLOBIN [6]: 13.8 G/DL
LEUKOCYTE COUNT [6]: 11.57 x10E3/uL
LYMPHOCYTE [6]: 87.33%
MEAN CORPUSCULAR HEMOGLOBIN [6]: 23.23 pg
MEAN CORPUSCULAR HEMOGLOBIN CONCENTRATION [6]: 36.93 G/DL
MEAN CORPUSCULAR VOLUME [6]: 62.9 fL
MONOCYTE [6]: 0%
NEUTROPHIL [6]: 12.33%
PLATELET COUNT [6]: 1286.67 x10E3/uL
ALANINE AMINOTRANSFERASE [6]: 35 u/L
ALBUMIN [6]: 3.4 G/DL
ALKALINE PHOSPHATASE [6]: 311.67 u/L
ASPARTATE AMINOTRANSFERASE [6]: 52 u/L
BLOOD UREA NITROGEN [6]: 14 mg/dL
CHLORIDE [6]: 102.33 MEQ/L
CHOLESTEROL [6]: 50.67 mg/dL
CREATINE PHOSPHOKINASE [6]: 124 u/L
CREATININE [6]: 0.53 mg/dL
GLUCOSE [6]: 159.67 mg/dL
PHOSPHORUS [6]: 12.5 mg/dL
POTASSIUM [6]: 6.77 MEQ/L
SODIUM [6]: 148.67 MEQ/L
TOTAL PROTEIN [6]: 5.7 G/DL
